Measured values reported in US7884117B2, “Carbonylamino pyrrolopyrazoles, potent kinase inhibitors” (Pfizer Inc., priority 2005, dated 2011).
pEC50, pKi: −log10 of the molar value.

What was measured:
[1] = molecular target: T1, PAK4 kinase activity in whole cells (TR-293-KDG, modified HEK 293) (Homo sapiens, UniProt O96013); experiment: PAK4 cellular assay: sandwich ELISA of PAK4-dependent phosphorylation of GEF-H1b in TR-293-KDG cells; type: cell-based; details: 3-hour exposure
T1 construct: engineered to overexpress both GEF-H1b and the kinase domain (KD) of PAK4; expressed in transfected cells; host or cells: TR-293-KDG (modified HEK 293, Trex system, Invitrogen)
T1 sequence (O96013 321-572 limits assumed): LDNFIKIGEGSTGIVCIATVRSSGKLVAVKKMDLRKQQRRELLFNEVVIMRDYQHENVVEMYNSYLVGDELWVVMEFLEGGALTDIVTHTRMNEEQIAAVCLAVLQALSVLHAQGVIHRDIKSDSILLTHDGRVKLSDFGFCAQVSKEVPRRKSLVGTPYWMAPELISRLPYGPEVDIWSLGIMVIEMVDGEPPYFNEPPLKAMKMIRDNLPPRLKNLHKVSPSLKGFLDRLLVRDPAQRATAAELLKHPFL
Experimental: A sandwich ELISA method was used to measure the PAK4 kinase activity in whole cells. The level of PAK4-dependent phosphorylation of GEF-H1b can be determined by monitoring the binding of a phosphospecific antibody to GEF-H1b. […] The KD of PAK4 is inducible in this cell line by tetracycline (Trex system, Invitrogen). […] To establish a phosphorylation event on GEF-HL, cells are induced with doxycycline to express the PAK4 KD. […] Candidate substance effect is measured as the ability to block this phosphorylation event.
ELISA plate was prepared by pre-coating the plates with a capture antibody (α-HA-tag mouse monoclonal antibody), blocked with BSA, and washed in 0.1% tween 20 in tris-buffered saline (TBST). […] Cells were then lysed with a modified RIPA buffer supplemented with protease inhibitors. […] Between all subsequent steps plates were washed 4 times with TBST. Detection antibody (recognizing the phospho-specific eptitope on GEF-H1b) was added for 1 hour, followed by addition of an enzyme linked goat α-rabbit secondary antibody for 45 minutes. […] EC50 values were calculated by sigmoid curve fitting using a four-parameter analysis.

[2] = molecular target: T2, PAK4 Kinase domain (PAK4 KD) (Homo sapiens, UniProt O96013); experiment: PAK4 kinase domain enzymatic assay (PK/LDH-coupled, Ki); type: biochemical; details: PAK4 Kinase Domain
T2 construct: Cloning, expression, and purification of recombinant PAK4 Kinase domain (PAK4 KD); His tag (pET28a(+)/pET24a(+), Ni-NTA purification) (N, cleaved yes); GST (pGST4.5, glutathione column) (N, cleaved yes); made in house; host or cells: E. coli BL21(DE3)
T2 sequence (O96013 321-572 limits assumed): as above

| Compound | pEC50 [1] | pKi [2] |
| --- | --- | --- |
| COc1ccc(CC(=O)Nc2n[nH]c3c2CN(C(=O)O[C@H](CN(C)C)c2ccccc2)C3(C)C)cc1 [Example 19, (1S)-2-(dimethylamino)-1-phenylethyl 3-{[(4-methoxyphenyl)acetyl]amino}-6,6-dimethyl-4,6-dihydropyrrolo [3,4-c]pyrazole-5(1H)-carboxylate] | 7.17 | 8.10 |
| CC(C)N(C)C[C@@H](OC(=O)N1Cc2c(NC(=O)c3ccc(F)cc3)n[nH]c2C1(C)C)c1ccccc1 [Example 40, (1S)-2-[isopropyl(methyl)amino]-1-phenylethyl 3-[(4-fluorobenzoyl)amino]-6,6-dimethyl-4,6-dihydropyrrolo[3,4-c]pyrazole-5(H)-carboxylate] | 6.82 | 7.19 |
| CN(C)C[C@@H](OC(=O)N1Cc2c(NC(=O)C3CCC3)n[nH]c2C1(C)C)c1ccccc1 [Example 11, (1S)-2-(dimethylamino)-1-phenylethyl 3-[(cyclobutylcarbonyl)amino]-6,6-dimethyl-4,6-dihydropyrrolo[3,4-c]pyrazole-5(1H)-carboxylate] | 7.80 | 7.00 |
| CNC[C@@H](OC(=O)N1Cc2c(NC(=O)c3ccc(F)cc3)n[nH]c2C1(C)C)c1ccccc1 [Example 121, (S)-2-(methylamino)-1-phenylethyl 3-(4-fluorobenzamido)-6,6-dimethylpyrrolo[3,4-c]pyrazole-5(1H,4H,6H)-carboxylate] | 6.91 | 7.79 |
| CN(C)C[C@@H](NC(=O)N1Cc2c(NC(=O)c3ccccc3F)n[nH]c2C1(C)C)c1ccccc1 [Example 48, N-[(1S)-2-(dimethylamino)-1-phenylethyl]-3-[(2-fluorobenzoyl)amino]-6,6-dimethyl-4,6-dihydropyrrolo[3,4-c]pyrazole-5(1H)-carboxamide] | 7.44 | 7.01 |
| CN(C)C[C@@H](NC(=O)N1Cc2c(NC(=O)[C@@H]3C[C@H]3c3ccccc3)n[nH]c2C1(C)C)c1ccccc1 [Example 56, N-[(1S)-2-(dimethylamino)-1-phenylethyl]-6,6-dimethyl-3-({[trans-2-phenylcyclopropyl]carbonyl}amino)-4,6-dihydropyrrolo[3,4-c]pyrazole-5(1H)-carboxamide] | 7.43 | 8.16 |
| CN(C)C[C@@H](OC(=O)N1Cc2c(NC(=O)C3CC3)n[nH]c2C1(C)C)c1ccccc1 [Example 9, (1S)-2-(dimethylamino)-1-phenylethyl 3-[(cyclopropylcarbonyl)amino]-6,6-dimethyl-4,6-dihydropyrrolo[3,4-c]pyrazole-5(1H)-carboxylate] | 7.88 | 7.02 |
| CC(C)C[C@@H](CN(C)C)OC(=O)N1Cc2c(NC(=O)c3ccc(F)cc3)n[nH]c2C1(C)C [Example 36, (1S)-1-[(dimethylamino)methyl]-3-methylbutyl 3-[(4-fluorobenzoyl)amino]-6,6-dimethyl-4,6-dihydropyrrolo[3,4-c]pyrazole-5(H)-carboxylate] | 6.50 | 6.99 |
| CN(C)C[C@@H](NC(=O)N1Cc2c(NC(=O)c3ccccc3)n[nH]c2C1(C)C)c1ccccc1 [Example 46, 3-(benzoylamino)-N-[(1S)-2-(dimethylamino)-1-phenylethyl]-6,6-dimethyl-4,6-dihydro pyrrolo[3,4-c]pyrazole-5(1H)-carboxamide] | 7.49 | 7.47 |
| 3-[(2,4-difluorobenzoyl)amino]-N-[(1S)-2-(dimethylamino)-1-phenylethyl]-6,6-dimethyl-4,6-dihydropyrrolo[3,4-c]pyrazole-5(1H)-carbox- amide [Example 49] | 7.04 | 6.71 |
| CN(C)C[C@@H](OC(=O)N1Cc2c(NC(=O)c3ccc(F)cc3F)n[nH]c2C1(C)C)C1CCCCC1 [Example 34, (1S)-1-cyclohexyl-2-(dimethylamino)ethyl 3-[(2,4-difluorobenzoyl)amino]-6,6-dimethyl-4,6-dihydropyrrolo[3,4-c]pyrazole-5(1H)-carboxylate] | 7.22 | 6.29 |
| CN(C)C[C@@H](NC(=O)N1Cc2c(NC(=O)c3ccccn3)n[nH]c2C1(C)C)c1ccccc1 [Example 51, N-[(1S)-2-(dimethylamino)-1-phenylethyl]-6,6-dimethyl-3-[(pyridin-2-ylcarbonyl)amino]-4,6-dihydropyrrolo[3,4-c]pyrazole-5(1H)-carboxamide] | 7.69 | 6.93 |
| CN(C)C[C@@H](NC(=O)N1Cc2c(NC(=O)c3cccs3)n[nH]c2C1(C)C)c1ccccc1 [Example 57, N-[(1S)-2-(dimethylamino)-1-phenylethyl]-6,6-dimethyl-3-[(2-thienylcarbonyl)amino]-4,6-dihydropyrrolo[3,4-c]pyrazole-5(1H)-carboxamide] | 7.80 | 7.95 |
| CN(C)C[C@@H](NC(=O)N1Cc2c(NC(=O)C3CCC3)n[nH]c2C1(C)C)c1ccccc1 [Example 53, 3-[(cyclobutylcarbonyl)amino]-N-[(1S)-2-(dimethylamino)-1-phenylethyl]-6,6-dimethyl-4,6-dihydropyrrolo[3,4-c]pyrazole-5(1H)-carboxamide] | 7.55 | 6.68 |
| CC1(C)c2[nH]nc(NC(=O)c3cccs3)c2CN1C(=O)N[C@H]1C[C@@H]1c1ccccc1 (relative stereo) [Example 98, 6,6-dimethyl-N-[trans-2-phenylcyclopropyl]-3-[(2-thienylcarbonyl)amino]-4,6-dihydropyrrolo[3,4-c]pyrazole-5(1H)-carboxamide] | 5.97 | 7.71 |
| CN(C)C[C@@H](OC(=O)N1Cc2c(NC(=O)c3ccc(C(F)(F)F)cc3)n[nH]c2C1(C)C)c1ccccc1 [Example 5] | 6.57 | 7.84 |
| CN(C)CC(OC(=O)N1Cc2c(NC(=O)c3ccc(F)cc3)n[nH]c2C1(C)C)c1ccc(F)cc1 (stereo not shown) [Example 39, 2-(dimethylamino)-1-(4-fluorophenyl)ethyl 3-[(4-fluorobenzoyl)amino]-6,6-dimethyl-4,6-dihydropyrrolo[3,4-c]pyrazole-5(1H)-carboxylate] | 7.82 | 7.32 |
| CN(C)C[C@H](Cc1ccccc1)OC(=O)N1Cc2c(NC(=O)c3ccccc3F)n[nH]c2C1(C)C [Example 31, (1S)-1-benzyl-2-(dimethylamino)ethyl 3-[(2-fluorobenzoyl)amino]-6,6-dimethyl-4,6-dihydropyrrolo[3,4-c]pyrazole-5(1H)-carboxylate] | 6.64 | 6.07 |
| CN(C)C[C@@H](NC(=O)N1Cc2c(NC(=O)c3cccc(Oc4ccccc4)c3)n[nH]c2C1(C)C)c1ccccc1 [Example 96, N-[(1S)-2-(dimethylamino)-1-phenylethyl]-6,6-dimethyl-3-[(3-phenoxybenzoyl)amino]-4,6-dihydropyrrolo[3,4-c]pyrazole-5(1H)-carboxamide] | 7.23 | 7.90 |
| CC(C)C[C@@H](CN(C)C)OC(=O)N1Cc2c(NC(=O)C3CCC3)n[nH]c2C1(C)C [Example 80, (S)-1-[(dimethylamino)methyl]-3-methylbutyl 3-[(cyclobutylcarbonyl)amino]-6,6-dimethyl-4,6-dihydropyrrolo[3,4-c]pyrazole-5(1H)-carboxylate] | 7.92 | 6.12 |
